These results are taken from patent US4906639A, “Cycloalkanol esters of dihydrolysergic acid” (Eli Lilly and Company, priority 1989, dated 1990).

For test [1], the system named is 5HT2 receptors. As to conditions: mediated by 5HT2 receptors; Cohen I; cited from earlier work.
Test [2] deals with T1, 5HT2 receptors (Rattus norvegicus, UniProt P14842).
T1 construct: their external jugular veins and thoracic aortas dissected free of connective tissue; from tissue; host or cells: isolated external jugular vein of male Wistar rats
Put plainly: Apparent dissociation constants for 5HT2 receptors determined in the rat jugular vein (antagonism of contraction to serotonin). As to conditions: antagonist incubated one hour, agonist serotonin, 37° C., read-out: -log KB (apparent dissociation constant, negative logarithm) (converted). The format is cell-based, rat (male Wistar). The protocol:
An initial optimum resting force of 1 and 4 g was applied to the jugular vein and aorta, respectively. […] Exp. Ther., 205, 400 (1978). Alpha receptor antagonist activity was evaluated in the aorta.

Structures can show the parent of a compound that is named as a salt.

T1 sequence (P14842 whole entry): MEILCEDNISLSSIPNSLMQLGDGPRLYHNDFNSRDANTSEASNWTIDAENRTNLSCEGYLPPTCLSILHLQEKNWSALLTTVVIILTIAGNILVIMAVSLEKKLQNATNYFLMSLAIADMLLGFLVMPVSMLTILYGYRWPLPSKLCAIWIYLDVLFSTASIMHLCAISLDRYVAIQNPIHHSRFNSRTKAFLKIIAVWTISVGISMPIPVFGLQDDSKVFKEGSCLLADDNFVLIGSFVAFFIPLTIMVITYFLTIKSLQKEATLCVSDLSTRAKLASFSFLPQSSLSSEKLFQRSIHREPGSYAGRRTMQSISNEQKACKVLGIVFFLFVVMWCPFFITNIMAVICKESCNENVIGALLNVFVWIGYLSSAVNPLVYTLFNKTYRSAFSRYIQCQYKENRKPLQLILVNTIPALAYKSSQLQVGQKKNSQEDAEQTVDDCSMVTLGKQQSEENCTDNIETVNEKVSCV

Consider `CC(O)C(C)OC(=O)[C@@H]1C[C@@H]2c3cccc4c3c(cn4C(C)C)C[C@H]2N(C)C1` (stereo partly drawn) [LY53857, 1-isopropyl-6-methyl-8β-(1-methyl-2-hydroxy)propoxycarbonyl-5R-ergoline], for which the “antagonism of vascular contraction to serotonin” value in the test with 5HT2 receptors [1] is “potent antagonist”.
A word on the Kb: it is the affinity of an antagonist, worked out from how it opposes an agonist. With `CCN1C[C@H](C(=O)OC2CCCCC2)C[C@@H]2c3cccc4c3c(cn4C(C)C)C[C@H]21` [C2 H5, cyclohexyl, HCl, 1-Isopropyl-6-ethyl-8β-cyclohexyloxycarbonylergoline], the Kb at 5HT2 receptors [2] is 15.5 nM.
Still for that read-out and setting: the result for `CCCCN1C[C@H](C(=O)OC2CCCCC2)C[C@@H]2c3cccc4c3c(cn4C(C)C)C[C@H]21` [n-C4 H9, cyclohexyl, HCl, 1-Isopropyl-6-n-butyl-8β-cyclohexyloxycarbonyl ergoline hydrochloride] reads 39.8 nM.
Consider `CC(C)n1cc2c3c(cccc31)[C@H]1C[C@@H](C(=O)OC3CCCCC3)CN(C)[C@@H]1C2` [CH3, cyclohexyl, maleate, cyclohexyl 1-isopropyl-9,10-dihydrolysergate maleate], for which the antagonist dissociation constant (Kb) at 5HT2 receptors [2] is 2.14 nM.
On the same count and under the same terms, to `CCCN1C[C@H](C(=O)OC2CCCCC2)C[C@@H]2c3cccc4c3c(cn4C(C)C)C[C@H]21` [n-C3 H7, cyclohexyl, HCl] belongs 85.1 nM; to `CC(C)n1cc2c3c(cccc31)[C@H]1C[C@@H](C(=O)OC3CCC(=O)CC3)CN(C)[C@@H]1C2` [CH3,4-oxocyclohexyl, maleate, 4-Oxocyclohexyl 1-isopropyl-9,10-dihydrolysergate], 0.0977 nM.
